Measurements reported in US20080003634A1, “Extended Primary Retinal Cell Culture and Stress Models, and Methods of Use” (ACUCELA, INC., priority 2003, published 2008).

Tests used:
[1] = test system: rhodopsin-expressing photoreceptors; assay: A2E-induced stress, rhodopsin-labeled photoreceptor count in mature retinal cell culture; type: cell-based, Porcine
Source text: (§1) Porcine eyes were obtained from Kapowsin Meats, Inc. (Graham, Wash.). Eyes were enucleated, and muscle and tissue were cleaned away from the orbit. Eyes were cut in half along their equator and the neural retina was dissected from the anterior part of the eye in buffered saline solution, according to standard methods known in the art. Briefly, the retina, ciliary body, and vitreous were dissected away from the anterior half of the eye in one piece, and the retina was gently detached from the clear vitreous. Each retina was dissociated with papain (Worthington Biochemical Corporation, Lakewood, N.J.), followed by inactivation with fetal bovine serum (FBS) and addition of 134 Kunitz units/ml of DNaseI. […]
(§2) Cultures were analyzed by counting rhodopsin-labeled photoreceptors and NFM-labeled ganglion cells using an Olympus IX81 or CZX41 microscope (Olympus, Tokyo, Japan). Twenty fields of view were counted per coverslip with a 20× objective lens. Six coverslips were analyzed by this method for each condition in each experiment. Cells that were not exposed to any stressor were counted, and cells exposed to a stressor were normalized to the number of cells in the control. […]
(§3) Immunocytochemical analysis was performed and the data analyzed as described in Examples 1 and 2.

[2] = test system: NFM-expressing ganglion cells; assay: A2E-induced stress, NFM-labeled ganglion cell count in mature retinal cell culture; type: cell-based, Porcine
Source text: as §1, §2, §3

[3] = test system: rhodopsin-expressing photoreceptors; assay: EPO effect on photoreceptor survival under A2E stress in retinal cell culture; type: cell-based, Porcine; details: A2E 25 μM for 24 hours, no EPO; FIG. 13
Source text: as §1
as §2, with “exposed to either EPO or to any stressor” for “exposed to any stressor”, “a stressor with or without treatment with EPO were normalized” for “a stressor were normalized”

[4] = test system: bovine retinal pigment epithelial cells; details: bovine RPE cells; cited from earlier work

In the case of CC(C=CC1=C(C)CCCC1(C)C)=CC=CC(C)=Cc1cc(C=CC=C(C)C=CC2=C(C)CCCC2(C)C)cc[n+]1CCO [A2E, N-retinylidene-N-retinyl-ethanolamine], the “death of photoreceptor cells compared to photoreceptor cells not exposed to A2E” value ([1]; 20 μM A2E for 48 hours) is reported as “more than 90%”, the “number of rhodopsin-expressing photoreceptors” value ([1]; varying concentrations of A2E (0, 10, 20, 40 μM), 24 hours, FIG. 7) is reported as “showed a dose response” and the “survival of ganglion cells” value ([2]; 20 μM A2E for 48 hours) is reported as “not adversely affected”. The “number of NFM-expressing ganglion cells versus no stress” value ([2]; 20 μM A2E, 24 hours, FIG. 8) was “not statistically different” and the “total live cell count of rhodopsin-expressing photoreceptors after stress versus before stress” value [3] was “much smaller”.
In the case of c1ccc2c(c1)cc1ccc3cccc4ccc2c1c34 [benzo(a)pyrene], the “growth and replication of the cells” value [4] is given as “appeared to inhibit growth and replication”.
